Patent publication US20240408008A1, “AN IN-SITU GELLING ENEMA OF RIFAMYCIN FOR TREATING POUCHITIS AND DISTAL ULCERATIVE COLITIS” (COSMO TECHNOLOGIES LTD., priority 2021, published 2024)
In brackets after ≈: the same amount, converted by molar mass.

Columns and labels:
Klebsiella oxytoca = assay: MIC, broth dilution; assay type: cell-based; details: aerobic
Escherichia coli = assay: MIC, broth dilution; assay type: cell-based; details: aerobic
Enteroccocus faecium = assay: MIC, broth dilution; assay type: cell-based; details: aerobic
[1] = tested on: Faecalibacterium prausnitzii; assay: MIC, broth dilution; assay type: cell-based; details: anaerobic
F. nucleatum = assay: MIC, broth dilution; assay type: cell-based; details: Fusobacterium nucleatum, anaerobic
Veillonella parvula = assay: MIC, broth dilution; assay type: cell-based; details: DSM2007; Veillonella parvula DSM 2007; anaerobic
Clostridium difficile = assay: MIC, broth dilution; assay type: cell-based; details: Clostridioides difficile, anaerobic
Excerpt: The Minimum Inhibitory Concentration (MIC) is defined as the lowest concentration expressed in mg/L (equivalent to μg/mL) of an antimicrobial ingredient or agent that is bacteriostatic (prevents the visible growth of bacteria). MICs are used to evaluate the antimicrobial efficacy of various compounds by measuring the effect of decreasing concentrations of antibiotic over a defined period in terms of inhibition of microbial population growth. MIC is generally regarded as the most basic laboratory measurement of the activity of an antimicrobial agent against an organism.
Antimicrobial characteristics of Rifamycin sodium salt was assessed on a panel of selected bacteria involved in pouchitis pathogenesis and a standard broth dilution method was used to determine the MIC of Rifamycin. Briefly, two-fold dilutions of the tested compounds were dispensed in 96 round bottom well plates, each dilution was processed in the liquid culture medium suitable for the tested bacterial species. Bacteria inocula were prepared by a suspension of the microbial strain in sterile water saline and adjusted to a concentration of 0.5McFarland standard corresponding to 1.5×10^8 CFU/ml. A final bacterial concentration of 0.5-1×10^5 CFU/ml was distributed in each well. […] MIC was recorded when there was visible growth in the positive growth control column (bacterial inoculum without test substance). […]

[2] = Rifamycin concentration in colon homogenates and plasma, HPLC/MS-MS; assay type: in vivo; details: rats, single enema of formulation 7639
Method: Briefly, rats were anesthetized and treated by enema with formulation 7639 (2 mL/rat) into the rectum by using a catheter. All rats were sacrificed by CO2 inhalation at the predetermined time points. After a single enema administration of 7639 formulation, the concentration of Rifamycin in colon homogenates and plasma was determined by HPLC/MS-MS in samples collected at various time points.

DSS induced colitis = assay: Acute colitis induced by Dextran Sulfate Sodium (DSS); assay type: in vivo; details: mice, DSS 2%, enema 67 mg/kg
Method: In situ gel enema formulation batch 7663 (same formulation as batch 7639) in vivo efficacy was tested in a murine model of acute colitis induced by Dextran Sulfate Sodium (DSS). This animal model is perhaps the most widely used mouse model of colitis and employs DSS, a chemical colitogen with anticoagulant properties, to induce disease which closely resembles human UC. DSS induced intestinal inflammation results in damage to the epithelial monolayer lining the large intestine allowing the dissemination of proinflammatory intestinal contents (e.g. bacteria and their products) into underlying tissue.
For this study, a group of mice was treated by enema with Batch 7663 (indicated as CB0125 in the figures) (dose 45 mg/kg), one group was treated by enema with Placebo Batch 7679 as a comparator for 7663; a group was treated by enema with Rifamycin powder dissolved in water (67 mg/kg). One group of mice was treated orally PO with 5-ASA at the dose of 100 mg/Kg; this group was introduced as positive control. 5-ASA is the golden standard therapy for inflammatory bowel diseases, including UC, distal UC and proctitis. One group was treated by enema with the vehicle (H2O) only, as negative control.
Briefly DSS (2%) was dissolved in water (w/v) and given to mice in place of normal drinking water. DSS water was provided ad libitum for 5 days and was changed daily. This period was followed by a washout period of 5 days with water only. Mice were weighed daily and monitored for clinical status including hunching, mobility, soft stool and/or diarrhoea. At end of the study mice were sacrificed by CO2 inhalation. Immediately after euthanasia, the animals were laparatomyzed and intestine was exteriorized. The entire colon was isolated from the caecum to the anus, placed unstretched on a ruler and then measured and weighed after rinsing the lumen with saline. The weight was normalized to the colon length by calculating the ratio.
For histological analysis of colon samples, about 2 cm of the middle portion of isolated colon was fixed in a 10% formalin. Each fixed fragment was embedded in paraffin. The slides were stained with haematoxylin and eosin and assessed according to the histological score.

CO[C@H]1/C=C/O[C@@]2(C)Oc3c(C)c(O)c4c(O)c(cc(O)c4c3C2=O)NC(=O)/C(C)=C\C=C\[C@H](C)[C@H](O)[C@@H](C)[C@@H](O)[C@@H](C)[C@H](OC(C)=O)[C@@H]1C [Rifamycin SV] gave an MIC (Klebsiella oxytoca; DSM6673, Klebsiella oxytoca (DSM 6673)) of 128 µg/mL (≈ 183 µM), an MIC (Klebsiella oxytoca; Klebsiella oxytoca, ATCC700324, K. oxytoca (ATCC 700324)) of 200 µg/mL (≈ 287 µM) and an MIC (Klebsiella oxytoca; Klebsiella oxytoca, DSM4798, K. oxytoca (DSM 4798)) of 256 µg/mL (≈ 367 µM). For the same molecule, the MIC (Klebsiella oxytoca; Klebsiella oxytoca, DSM5175, K. oxytoca (DSM 5175)) was 128 µg/mL (≈ 183 µM), the MIC (Escherichia coli; ATCC35218, Escherichia coli (ATCC 35218)) was 50 µg/mL (≈ 71.7 µM) and the MIC (Escherichia coli; Escherichia coli, ATCC11775, E. coli (ATCC 11775)) was 16 µg/mL (≈ 22.9 µM). The MIC (Escherichia coli; Escherichia coli, ATCC25922, E. coli (ATCC 25922)) was 64 µg/mL (≈ 91.7 µM), the MIC (Escherichia coli; Escherichia coli, ATCC51446, E. coli (ATCC 51446)) was 200 µg/mL (≈ 287 µM) and the MIC (Escherichia coli; Escherichia coli, DSM22312, E. coli (DSM 22312)) was 32 µg/mL (≈ 45.9 µM). For the same molecule, the MIC (Escherichia coli; Escherichia coli, DSM22313, E. coli (DSM 22313 )) was 64 µg/mL (≈ 91.7 µM), the MIC (Escherichia coli; Escherichia coli, DSM22664, E. coli (DSM 22664 )) was 32 µg/mL (≈ 45.9 µM) and the MIC (Enteroccocus faecium; Enteroccocus faecium (0808711)) was 100 µg/mL (≈ 143 µM). The MIC (Enteroccocus faecium; Enterococcus faecium, DSM17050, E. faecium (DSM 17050)) was 64 µg/mL (≈ 91.7 µM), the MIC (Enteroccocus faecium; Enterococcus faecium, DSM25697, E. faecium (DSM 25697)) was 1 µg/mL (≈ 1.43 µM) and the MIC (Enteroccocus faecium; Enterococcus faecium, E. faecium (09006056)) was 100 µg/mL (≈ 143 µM). The MIC (Enteroccocus faecium; Enterococcus faecium, E. faecium (DSM13590)) was 32 µg/mL (≈ 45.9 µM), the MIC ([1]; DSM107839, Faecalibacterium prausnitzii (DSM 107839)) was 0.06 µg/mL (≈ 0.086 µM) and the MIC ([1]; Faecalibacterium prausnitzii, DSM17677, F. prausnitzii (DSM 17677)) was < 0.03 µg/mL. For the same molecule, the MIC ([1]; Faecalibacterium prausnitzii, DSM107838, F. prausnitzii (DSM 107838)) was < 0.03 µg/mL, the MIC ([1]; Faecalibacterium prausnitzii, DSM107840, F. prausnitzii (DSM 107840)) was < 0.03 µg/mL and the MIC (F. nucleatum; DSM15643, F. nucleatum (DSM 15643)) was < 0.03 µg/mL. For the same molecule, the MIC (F. nucleatum; DSM19507, F. nucleatum (DSM 19507)) was 8 µg/mL (≈ 11.5 µM), the MIC (Veillonella parvula) was < 0.03 µg/mL and the MIC (Clostridium difficile; ATCC17857, C. difficile (ATCC 17857)) was 0.00011 µg/mL (≈ 0.000158 µM). For the same molecule, the MIC (Clostridium difficile; ATCC43953, Clostridium difficile (ATCC 43953)) was 0.007 µg/mL (≈ 0.01 µM), the concentration at 6 h ([2]; rat, colon homogenate, other: enema into the rectum, 2 mL/rat, 6 hrs after administration) was 123 ng/g and the “concentration in blood samples (LLOQ of the method)” value ([2]; 30 min., 1 h, 2 h, 4 h and 6 h) was < 1 ng/mL. For the same molecule, the histological score (DSS induced colitis; compared to 7663) was “lower improvement”, the “clinical score AUC” value (DSS induced colitis; compared to batch 7663) was “lower efficacy” and the cumulative stool score (DSS induced colitis; vs vehicle) was “significant improvement”.
